From patent US20250214942A1, “INHIBITORS OF RECEPTOR INTERACTING PROTEIN KINASE I FOR THE TREATMENT OF DISEASE” (Board of Regents, The University of Texas System, priority 2019, published 2025)
Blank lines part the entries; values can stand above or below the compound they belong to.

Tests used:
[1] = molecular target: RIPK1 (Homo sapiens (Human), UniProt Q13546); assay: ADP-Glo kinase assay (RIPK1 activity, conversion of ATP to ADP); type: biochemical; conditions: 5 nM RIPK1, 50 μM ATP, 6 h reaction; read-out: RIPK1 Enzyme Avg IC50
In short: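 RIPK1 (5 nM final) was preincubated 10 min at rt with 1:3-diluted compounds in HEPES pH 7.5/MgCl2/DTT/BSA/CHAPS buffer. ATP (50 μM final) was then added for 6 h, and ADP formed was read by ADP-Glo luminescence. IC50 values came from four-parameter logistic fitting.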

[2] = test system: human monocytic cell line U937; assay: Human U937 cellular necroptosis assay (TNFalpha + z-VAD-FMK, Cell Titer-Glo viability); type: cell-based; conditions: Homo sapiens, U-937, 22 h, U937 cells, 25 ng/mL human TNFalpha + 25 μM z-VAD-FMK, read-out: hU937 Avg IC50
In short: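 Readout is CellTiter-Glo 2.0 luminescence after 22 h at 37° C with compound, in cells triggered by human TNFalpha (25 ng/mL) and z-VAD-FMK (25 μM) in phenol red-free RPMI/10% FBS. Values are run-averaged IC50s from a four-parameter logistic curve.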

RIPK1, sequence (Q13546 1-327): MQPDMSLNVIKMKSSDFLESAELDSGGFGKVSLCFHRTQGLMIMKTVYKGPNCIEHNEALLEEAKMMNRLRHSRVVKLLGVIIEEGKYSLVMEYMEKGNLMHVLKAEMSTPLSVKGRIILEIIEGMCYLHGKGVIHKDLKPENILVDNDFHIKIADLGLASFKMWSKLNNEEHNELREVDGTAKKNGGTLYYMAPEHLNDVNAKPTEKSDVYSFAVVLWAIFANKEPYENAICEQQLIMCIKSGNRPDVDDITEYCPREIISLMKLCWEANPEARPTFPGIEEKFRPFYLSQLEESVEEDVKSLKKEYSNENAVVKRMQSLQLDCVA

SMILES: Cc1c2cc(C#N)ccc2nn1CC12CC(C(=O)N3N=CCC3c3cncc(F)c3)(C1)C2 (stereo not shown) [Example 129, 2-((3-(5-(5-fluoropyridin-3-yl)-4,5-dihydro-1H-pyrazole-1-carbonyl)bicyclo[1.1.1]-pentan-1-yl)methyl)-3-methyl-2H-indazole-5-carbonitrile]
- IC50 [1]: 515 nM
- IC50 [2]: 3860 nM

SMILES: N#Cc1ccc2c(cnn2CC23CC(C(=O)N4N=CCC4c4cc(F)cc(F)c4)(C2)C3)c1 (stereo not shown) [Example 64, 1-((3-(5-(3,5-difluorophenyl)-4,5-dihydro-1H-pyrazole-1-carbonyl)bicyclo[1.1.1]-pentan-1-yl)methyl)-1H-indazole-5-carbonitrile]
- IC50 [1]: 10 nM
- IC50 [2]: 7 nM

SMILES: O=C(N1N=CCC1c1cc(F)cc(F)c1)C12CC(COc3ncc(F)cc3F)(C1)C2 (stereo not shown) [Example 321, (5-(3,5-difluorophenyl)-4,5-dihydro-1H-pyrazol-1-yl)(3-(((3,5-difluoropyridin-2-yl)-oxy)methyl)bicyclo[1.1.1]-pentan-1-yl)methanone]
- IC50 [1]: 18 nM
- IC50 [2]: 45 nM

SMILES: O=C(N1N=CCC1c1ccccc1)C12CC(Cn3ncc4ncccc43)(C1)C2 (stereo not shown) [Example 147, (3-((1H-pyrazolo[4,3-b]-pyridin-1-yl)methyl)-bicyclo[1.1.1]pentan-1-yl)(5-phenyl-4,5-dihydro-1H-pyrazol-1-yl)methanone]
- IC50 [1]: 30 nM
- IC50 [2]: 142 nM

SMILES: NC(=O)c1cnnn1CC12CC(C(=O)N3N=CCC3c3cc(F)cc(F)c3)(C1)C2 (stereo not shown) [Example 55, 1-((3-(5-(3,5-difluorophenyl)-4,5-dihydro-1H-pyrazole-1-carbonyl)-bicyclo[1.1.1]pentan-1-yl)methyl)-1H-1,2,3-triazole-5-carboxamide]
- IC50 [1]: 896 nM
- IC50 [2]: 8930 nM

The next lines start with results.

- IC50 [1]: 32 nM
SMILES: N#Cc1ccc(OCC23CC(C(=O)N4N=CCC4c4cc(F)cc(F)c4)(C2)C3)c(Cl)c1 (stereo not shown) [Example 202, 3-Chloro-4-((3-(5-(3,5-difluorophenyl)-4,5-dihydro-1H-pyrazole-1-carbonyl)bicyclo[1.1.1]pentan-1-yl)methoxy)benzonitrile]
- IC50 [2]: 18 nM

- IC50 [1]: 34 nM
SMILES: O=C(N1N=CCC1c1cc(F)cc(F)c1)C12CC(Cn3cc4cccc(Cl)c4n3)(C1)C2 (stereo not shown) [Example 58, (3-((7-chloro-2H-indazol-2-yl)methyl)bicyclo[1.1.1]-pentan-1-yl)(5-(3,5-difluoro-phenyl)-4,5-dihydro-1H-pyrazol-1-yl)methanone]
- IC50 [2]: 160 nM

- IC50 [1]: 213 nM
SMILES: Cn1cc(-c2cc(OCC34CC(C(=O)N5CC(F)CC5c5cccc(F)c5)(C3)C4)ncn2)cn1 (single isomer, unassigned) [Example 29, (4-Fluoro-2-(3-fluorophenyl)pyrrolidin-1-yl)(3-(((6-(1-methyl-1H-pyrazol-4-yl)pyrimidin-4-yl)oxy)methyl)bicyclo[1.1.1]pentan-1-yl)methanone]
- IC50 [2]: 647 nM

- IC50 [1]: 16 nM
SMILES: Cc1cncc(C2CC=NN2C(=O)C23CC(Cn4ncc5cc(C#N)ccc54)(C2)C3)n1 (stereo not shown) [Example 50, 1-((3-(5-(6-methylpyrazin-2-yl)-4,5-dihydro-1H-pyrazole-1-carbonyl)bicyclo[1.1.1]pentan-1-yl)methyl)-1H-indazole-5-carbonitrile]
- IC50 [2]: 36 nM

- IC50 [1]: 20 nM
SMILES: O=C(N1N=CCC1c1cc(F)cc(F)c1)C12CC(Cn3ccc4cncnc43)(C1)C2 (stereo not shown) [Example 136, (3-((7H-pyrrolo[2,3-d]-pyrimidin-7-yl)methyl)-bicyclo[1.1.1]pentan-1-yl)(5-(3,5-difluorophenyl)-4,5-dihydro-1H-pyrazol-1-yl)-methanone]
- IC50 [2]: 58 nM

- IC50 [1]: 31 nM
SMILES: O=C(N1CC(F)CC1c1cccc(F)c1)C12CC(C(F)c3ccccc3)(C1)C2 (stereo not shown) [Example 41, (3-(Fluoro(phenyl)methyl)bicyclo[1.1.1]pentan-1-yl)-(4-fluoro-2-(3-fluorophenyl)pyrrolidin-1-yl)methanone]
- IC50 [2]: 272 nM
